According to PubChem BioAssay (NCI):
“And” between values parts separate entries of the source, which are not always exact repeats. Equal values may be shown once.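 Interpolation was linear, between the two tested concentrations surrounding the appropriate level; five concentrations were tested over 48 hours in 96-well plates. Abbreviation: GI50, concentration required for 50% inhibition of growth. TGI: total growth inhibition.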

Key:
Experiment in all cases: DTP human tumour cell line panel, 48 h
A498 renal = tested on: A498 renal
HL-60(TB) leukemia = tested on: HL-60(TB) leukemia
KM12 colon = tested on: KM12 colon
M14 melanoma = tested on: M14 melanoma
MALME-3M melanoma = tested on: MALME-3M melanoma
OVCAR-8 ovarian = tested on: OVCAR-8 ovarian
SK-MEL-28 melanoma = tested on: SK-MEL-28 melanoma
SR leukemia = tested on: SR leukemia
T-47D breast = tested on: T-47D breast
UACC-62 melanoma = tested on: UACC-62 melanoma

SMILES	TGI (A498 renal)	TGI (HL-60(TB) leukemia) [µM]	TGI (KM12 colon)	TGI (M14 melanoma)	TGI (MALME-3M melanoma)	TGI (OVCAR-8 ovarian)	TGI (SK-MEL-28 melanoma)	TGI (SR leukemia) [µM]	TGI (T-47D breast)	TGI (UACC-62 melanoma)	GI50 (A498 renal)	GI50 (HL-60(TB) leukemia) [µM]	GI50 (KM12 colon)	GI50 (M14 melanoma)	GI50 (MALME-3M melanoma)	GI50 (OVCAR-8 ovarian)	GI50 (SK-MEL-28 melanoma)	GI50 (SR leukemia) [µM]	GI50 (T-47D breast)	GI50 (UACC-62 melanoma)
O=c1oc2ccccc2cc1-c1ccc([N+](=O)[O-])cc1	> 100 µM	> 100	> 100 µM	> 100 µM	> 100 µM	> 100 µM	> 100 µM	> 100	> 100 µM	> 100 µM										
C[C@@H](Oc1cc(-c2cnn(C3CCNCC3)c2)cnc1N)c1c(Cl)ccc(F)c1Cl	5.34 µM	1.9	> 10 µM	2.65 µM	2.61 µM	> 10 µM	3.54 µM	1.09	7.9 µM	4.66 µM	1.51 µM	0.398	0.053 µM	1.08 µM	1.22 µM	2.86 µM	1.61 µM	0.0453	1.71 µM	1.54 µM
COc1cccc(-c2nc(-c3ccc(NS(=O)(=O)c4ccccc4)cc3)[nH]c2-c2ccnc(Br)c2)c1	5.03 µM	> 100	8.74 µM	6.09 µM	5.22 µM	> 100 µM	31 µM	> 100	> 100 µM	8.56 µM	1.25 µM	2.86	2.65 µM	2.03 µM	1.76 µM	3.33 µM	2.91 µM	2.85	2.74 µM	2.58 µM
c1ccc(Oc2c3ccccc3nc3ccccc23)cc1	25.8 µM	5.79	11 µM	10.7 µM	8.71 µM	24.8 µM	24.1 µM	54.3	10.9 µM	16.9 µM	4.49 µM	0.541	3.64 µM	3.4 µM	2.15 µM	6.22 µM	11.3 µM	2.97	2.81 µM	4.97 µM
Cc1ccc2c(/C=C/C(=O)c3cc(CN4CCOCC4)c(O)c4nc(C)ccc34)cc(CN3CCOCC3)c(O)c2n1	3.37 µM	0.677	2.24 µM	11.7 µM	10.6 µM	> 100 µM	12 µM	11.9	14 µM	7.48 µM	1.8 µM	0.272	0.558 µM	0.564 µM	2 µM	0.588 µM	1.08 µM	0.318	0.779 µM	0.432 µM
CC1/C=C/C=C/CC/C=C/C=C/C=C/C=C/C(OC2OC(C)C(O)C(N)C2O)CC2OC(CC(O)C(O)CCC(O)CC(O)CC(O)CC(=O)OC(C)C(C)C1O)CC(O)C2C(=O)O (stereo not drawn)	33.2 µM and 46.5 µg/mL	45.1	61.5 µM and 150 µg/mL	34.9 µM and 48.8 µg/mL	33 µM and 51.3 µg/mL	47 µM and 74.6 µg/mL	37 µM and 46.3 µg/mL	35.5	> 100 µM and 150 µg/mL	38 µM and 55.8 µg/mL	25.8 µg/mL		53 µg/mL	27.8 µg/mL	28.1 µg/mL	33.3 µg/mL	25.7 µg/mL		59.8 µg/mL	28.8 µg/mL
